The values that follow come from patent US9604989B2, “Imidazopyridazines as Akt kinase inhibitors” (Bayer Intellectual Property GmbH, priority 2011, dated 2017).

Assay [1] addresses His-tagged human recombinant kinase full-length Akt1 (Homo sapiens (Human), UniProt P31749). The experiment in a line: Akt1 kinase assay (Akt1 TR-FRET assay). It counts as biochemical. Particulars: 10 μM ATP, 60 min at 22° C., read-out: Akt1 median IC50.
Assay [2] concerns the target His-tagged human recombinant kinase full-length Akt2 (Homo sapiens (Human), UniProt P31751). The assay can be described thus: Akt2 kinase assay (Akt2 TR-FRET assay). It counts as biochemical. Particulars: 10 μM ATP, 60 min at 22° C., read-out: Akt2 median IC50.
Text: Akt2 inhibitory activity of compounds of the present invention was quantified employing the Akt2 TR-FRET assay as described in the following paragraphs.
His-tagged human recombinant kinase full-length Akt2 expressed in insect cells and activated by PDK1 was purchased form Invitrogen (part number PV 3975). As substrate for the kinase reaction the biotinylated peptide biotin-Ahx-[sequence] (C-terminus in amide form) was used which can be purchased e.g. from the company Biosynthan GmbH (Berlin-Buch, Germany). For the assay 50 nl of a 100 fold concentrated solution of the test compound in DMSO was pipetted into a black low volume 384 well microtiter plate (Greiner Bio-One, Frickenhausen, Germany), 2 μl of a solution of Akt2 in assay buffer [50 mM TRIS/HCl pH 7.5, 5 mM MgCl2, 1 mM dithiothreitol, 0.02% (v/v) Triton X-100 (Sigma)] were added and the mixture was incubated for 15 min at 22° C. to allow pre-binding of the test compounds to the enzyme before the start of the kinase reaction. Then the kinase reaction was started by the addition of 3 μl of a solution of adenosine-tri-phosphate (ATP, 16.7 μM=>final conc. in the 5 μl assay volume is 10 μM) and substrate (1.67 μM=>final conc. in the 5 μl assay volume is 1 μM) in assay buffer and the resulting mixture was incubated for a reaction time of 60 min at 22° C. The concentration of Akt2 in the assay was adjusted depending of the activity of the enzyme lot and was chosen appropriate to have the assay in the linear range, typical enzyme concentrations were in the range of about 0.2 ng/μl (final conc. in the 5 μl assay volume). The reaction was stopped by the addition of 5 μl of a solution of HTRF detection reagents (200 nM streptavidine-XL665 [Cisbio] and 1.5 nM anti-phosho-Serine antibody [Millipore, cat. #35-001] and 0.75 nM LANCE Eu-W 1024 labeled anti-mouse IgG antibody [Perkin Elmer]) in an aqueous EDTA-solution (100 mM EDTA, 0.1% (w/v) bovine serum albumin in 50 mM HEPES/NaOH pH 7.5). The resulting mixture was incubated 1 h at 22° C. to allow the binding of the biotinylated phosphorylated peptide to the streptavidine-XL665 and the antibodies. Subsequently the amount of phosphorylated substrate was evaluated by measurement of the resonance energy transfer from the anti-mouse-IgG-Eu-Chelate to the streptavidine-XL665. Therefore, the fluorescence emissions at 620 nm and 665 nm after excitation at 350 nm was measured in a TR-FRET reader, e.g. a Rubystar (BMG Labtechnologies, Offenburg, Germany) or a Viewlux (Perkin-Elmer). The ratio of the emissions at 665 nm and at 622 nm was taken as the measure for the amount of phosphorylated substrate.
Assay [3] relates to phospho-AKT at S473. The experiment in a line: Cellular p-AKT1/2/3-S473 assay in KPL-4 cells. It counts as cell-based. Particulars: Homo sapiens, KPL4; KPL-4 breast tumour cell line, compound treatment 2 hours; read-out: pAKT-S473 median IC50.
Assay [4] has as its system KPL-4 breast cancer cell line. The assay can be described thus: Tumor cell proliferation assay (CellTiter-Glo), KPL-4. It counts as cell-based. Particulars: Homo sapiens, KPL4, 72 h drug exposure, read-out: KLP-4 median IC50.
Assay [5] relates to MCF-7 breast tumour cell line. The experiment in a line: Tumor cell proliferation assay (CellTiter-Glo), MCF-7. It counts as cell-based. To be noted: Homo sapiens, MCF7, 72 h drug exposure, read-out: MCF-7 median IC50.
Assay [6] has as its system p-4E-BP1 at T70. The experiment in a line: Cellular p-4E-BP1-T70 assay in KPL-4 cells. It counts as cell-based. To be noted: Homo sapiens, KPL4; KPL-4 breast tumour cell line, compound treatment 2 hours; read-out: P4EBP1-T70 median IC50.

Sequence of His-tagged human recombinant kinase full-length Akt2 (P31751 whole entry): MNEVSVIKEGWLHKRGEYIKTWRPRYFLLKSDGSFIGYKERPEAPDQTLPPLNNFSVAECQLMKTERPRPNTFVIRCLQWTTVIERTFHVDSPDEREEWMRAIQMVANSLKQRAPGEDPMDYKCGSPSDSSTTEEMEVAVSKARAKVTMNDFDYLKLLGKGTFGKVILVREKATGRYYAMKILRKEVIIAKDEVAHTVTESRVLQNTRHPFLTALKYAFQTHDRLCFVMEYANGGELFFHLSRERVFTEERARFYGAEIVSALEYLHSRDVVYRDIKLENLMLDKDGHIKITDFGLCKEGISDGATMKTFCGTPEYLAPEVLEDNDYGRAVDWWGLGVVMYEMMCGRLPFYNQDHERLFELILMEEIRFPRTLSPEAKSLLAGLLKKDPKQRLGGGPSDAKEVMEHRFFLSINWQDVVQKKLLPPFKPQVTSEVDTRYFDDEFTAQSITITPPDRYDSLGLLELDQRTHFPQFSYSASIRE
Sequence of His-tagged human recombinant kinase full-length Akt1 (P31749 whole entry): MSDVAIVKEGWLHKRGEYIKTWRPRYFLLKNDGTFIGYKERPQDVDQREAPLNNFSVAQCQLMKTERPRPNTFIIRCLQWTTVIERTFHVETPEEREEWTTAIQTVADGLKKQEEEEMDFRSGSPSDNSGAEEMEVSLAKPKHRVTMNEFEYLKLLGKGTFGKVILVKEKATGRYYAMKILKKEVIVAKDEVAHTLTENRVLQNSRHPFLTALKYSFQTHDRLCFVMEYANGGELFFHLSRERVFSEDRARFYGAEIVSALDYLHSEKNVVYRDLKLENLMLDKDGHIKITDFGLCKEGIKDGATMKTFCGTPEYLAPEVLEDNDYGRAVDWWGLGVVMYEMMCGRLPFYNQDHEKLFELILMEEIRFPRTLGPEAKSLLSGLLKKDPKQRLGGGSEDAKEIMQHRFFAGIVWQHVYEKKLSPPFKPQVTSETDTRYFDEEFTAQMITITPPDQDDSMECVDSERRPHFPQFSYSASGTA

`Cc1ccc2nc(-c3ccc(C4(N)CCC4)cc3)c(-c3ccccc3)n2n1` [Example 1, 1-[4-(6-Methyl-3-phenylimidazo[1,2-b]pyridazin-2-yl)phenyl]cyclobutanamine]: the half-maximal inhibitory concentration (IC50) in assay [1] is 0.17 µM; in assay [2], 0.38 µM; in assay [3], 0.16 µM; in assay [4] it was 1.8 µM; in assay [5] it was 0.6 µM.
On to `CCc1ccc2nc(-c3ccc(C4(N)CCC4)cc3)c(-c3ccccc3)n2n1` [Example 2, 1-[4-(6-Ethyl-3-phenylimidazo[1,2-b]pyridazin-2-yl)phenyl]cyclobutanamine], for which the IC50 is 0.065 µM in assay [1]; 0.097 µM in assay [2]; 0.31 µM in assay [3]; 2.1 µM in assay [6]; 1.7 µM in assay [4]; 1.7 µM in assay [5].
As for `CCOC(=O)c1ccc2nc(-c3ccc(C4(N)CCC4)cc3)c(-c3ccccc3)n2n1` [Example 4, Ethyl 2-[4-(1-aminocyclobutyl)phenyl]-3-phenylimidazo[1,2-b]pyridazine-6-carboxylate], the half-maximal inhibitory concentration (IC50) in assay [1] was found to be 0.085 µM; in assay [2] it was 0.19 µM; in assay [3], 0.61 µM; in assay [6], 2.4 µM; in assay [4] it was 2.4 µM; in assay [5], 1.8 µM.
Take `CCc1cc(OC)c2nc(-c3ccc(C4(N)CCC4)cc3)c(-c3ccccc3)n2n1` [Example 13, 1-[4-(6-Ethyl-8-methoxy-3-phenylimidazo[1,2-b]pyridazin-2-yl)phenyl]cyclobutanamine]: the IC50 in assay [2] was determined as 0.042 µM; in assay [6], 0.66 µM; in assay [4], 1.5 µM; in assay [5], 1.1 µM.
`NC1(c2ccc(-c3nc4ccc(Cl)nn4c3-c3ccccc3)cc2)CCC1` [Example 17, 1-[4-(6-Chloro-3-phenylimidazo[1,2-b]pyridazin-2-yl)phenyl]cyclobutanamine]: the concentration for half-maximal inhibition (IC50) in assay [1] stood at 0.043 µM; in assay [2], 0.092 µM; in assay [3], 0.012 µM; in assay [6], 0.43 µM.
With `CNC(=O)c1cc(OC)c2nc(-c3ccc(C4(N)CCC4)cc3)c(-c3ccccc3)n2n1` [Example 26, 2-[4-(1-Aminocyclobutyl)phenyl]-8-methoxy-N-methyl-3-phenylimidazo[1,2-b]pyridazine-6-carboxamide], the IC50 is 0.01 µM in assay [2]; 0.0009 µM in assay [3]; 0.09 µM in assay [6]; 1.8 µM in assay [4]; 1.8 µM in assay [5].
For `COC(=O)c1ccnn2c(-c3ccccc3)c(-c3ccc(C4(N)CCC4)cc3)nc12` [Example 31, Methyl 2-[4-(1-aminocyclobutyl)phenyl]-3-phenylimidazo[1,2-b]pyridazine-8-carboxylate], the IC50 in assay [2] stood at 0.14 µM; in assay [3] it was 1.8 µM; in assay [6], 4.3 µM; in assay [4], 8.4 µM; in assay [5], 1.4 µM.
Turning to `NC(=O)c1cc(C(N)=O)c2nc(-c3ccc(C4(N)CCC4)cc3)c(-c3ccccc3)n2n1` [Example 34, 2-[4-(1-Aminocyclobutyl)phenyl]-3-phenylimidazo[1,2-b]pyridazine-6,8-dicarboxamide], the 50% inhibitory concentration (IC50) in assay [2] worked out at 0.014 µM; in assay [3], 0.0031 µM; in assay [6], 0.15 µM; in assay [4] it was 1.1 µM; in assay [5] it was 0.33 µM.
As for `Nc1ccc2nc(-c3ccc(C4(N)CCC4)cc3)c(-c3ccccc3)n2n1` [Example 35, 2-[4-(1-Aminocyclobutyl)phenyl]-3-phenylimidazo[1,2-b]pyridazin-6-amine], the IC50 in assay [2] came out at 1.2 µM; in assay [3] it was 0.19 µM; in assay [6] it was 1.7 µM; in assay [4] it was 6.1 µM; in assay [5] it was 3 µM.
`NC1(c2ccc(-c3nc4c(-c5ccc(F)cc5)ccnn4c3-c3ccccc3)cc2)CCC1` [Example 44, 1-{4-[8-(4-Fluorophenyl)-3-phenylimidazo[1,2-b]pyridazin-2-yl]phenyl}cyclobutanamine]: the IC50 in assay [2] is 0.31 µM; in assay [3] it was 0.8 µM; in assay [6], 0.38 µM; in assay [4] it was 2 µM.
Regarding `NC1(c2ccc(-c3nc4c(C5CC5)cc(Cl)nn4c3-c3ccccc3)cc2)CCC1` [Example 46, 1-[4-(6-Chloro-8-cyclopropyl-3-phenylimidazo [1,2-b]pyridazin-2-yl)phenyl]cyclobutanamine], the half-maximal inhibitory concentration (IC50) in assay [2] came to 0.085 µM; in assay [3], 0.43 µM; in assay [6], 0.3 µM; in assay [4] it was 1.9 µM; in assay [5], 1.5 µM.
Taken in the same sequence, the figures for `Nc1ccnn2c(-c3ccccc3)c(-c3ccc(C4(N)CCC4)cc3)nc12` [Example 48, 2-[4-(1-Aminocyclobutyl)phenyl]-3-phenylimidazo[1,2-b]pyridazin-8-amine] were 0.61 µM, 0.042 µM, 0.029 µM, 1.1 µM and 1.3 µM.
With `CNC(=O)c1cc(-c2ncc[nH]2)c2nc(-c3ccc(C4(N)CCC4)cc3)c(-c3ccccc3)n2n1` [Example 62, 2-[4-(1-Aminocyclobutyl)phenyl]-8-(1H-imidazol-2-yl)-N-methyl-3-phenylimidazo[1,2-b]pyridazine-6-carboxamide], the half-maximal inhibitory concentration (IC50) in assay [1] is 0.016 µM; in assay [2] it was 0.062 µM; in assay [3], 0.0004 µM; in assay [6] it was 0.035 µM.
For the molecule `CNC(=O)c1cc(OCC2CC2)c2nc(-c3ccc(C4(N)CCC4)cc3)c(-c3ccccc3)n2n1` [Example 64, 2-[4-(1-Aminocyclobutyl)phenyl]-8-(cyclopropylmethoxy)-N-methyl-3-phenylimidazo[1,2-b]pyridazine-6-carboxamide], the concentration for half-maximal inhibition (IC50) in assay [2] stood at 0.012 µM; in assay [3], 0.0009 µM; in assay [6] it was 0.084 µM; in assay [4], 0.36 µM; in assay [5], 0.15 µM.
Take `NC1(c2ccc(-c3nc4c(-c5cc[nH]n5)cc(C(=O)O)nn4c3-c3ccccc3)cc2)CCC1` [Example 67, 2-[4-(1-Aminocyclobutyl)phenyl]-3-phenyl-8-(1H-pyrazol-3-yl)imidazo[1,2-b]-pyridazine-6-carboxylic acid]: the half-inhibitory concentration (IC50) in assay [1] is 0.058 µM; in assay [2], 0.096 µM; in assay [3], greater than 10 µM; in assay [6], greater than 10 µM.
For `NC1(c2ccc(-c3nc4ccc(C(=O)NCCO)nn4c3-c3ccccc3)cc2)CCC1` [Example 70, 2-[4-(1-Aminocyclobutyl)phenyl]-N-(2-hydroxyethyl)-3-phenylimidazo[1,2-b]pyridazine-6-carboxamide], the IC50 in assay [2] was 0.11 µM; in assay [3] it was 0.0057 µM; in assay [6], 2.4 µM; in assay [4], 2.6 µM; in assay [5] it was 0.94 µM.
Consider `CCOc1ccc2nc(-c3ccc(C4(N)CCC4)cc3)c(-c3ccccc3)n2n1` [Example 78, 1-[4-(6-Ethoxy-3-phenylimidazo[1,2-b]pyridazin-2-yl)phenyl]cyclobutanamine], for which the half-inhibitory concentration (IC50) in assay [1] was determined as 0.032 µM; in assay [2], 0.23 µM; in assay [3], 0.092 µM; in assay [6], 0.58 µM.
